Measured values taken from US12202840B2, “Compounds for the treatment or alleviation of disorders associated with Tau aggregates” (AC Immune SA, priority 2018, dated 2025).

Legend:
[1] = biological target: T1, K18 aggregates (Tau K18 fragment, amino acids 244 to 372 of human Tau441) (Homo sapiens, UniProt P10636); assay: Tau K18 disaggregation assay by ThT; type: biochemical; conditions: 2 μM K18 aggregates, 160 to 0.04 μM compound, 30 minutes RT, ThT fluorescence; read-out: TauK18 disaggregation EC50
T1 construct: encompassing amino acids 244 to 372 of the longest isoform (2N4R) of human Tau441; host or cells: bacteria
Method: Tau K18 Disaggregation Assay by ThT
The Tau K18 fragment, encompassing amino acids 244 to 372 of the longest isoform (2N4R) of human Tau441, was expressed in bacteria and purified or bought from SignalChem. For the K18 disaggregation assay by ThT, 35 μM of recombinant K18 in PBS were aggregated for 24 hours at 37° C. in presence of 50 μM of heparin (Sigma-Aldrich) and 10 mM of DTT (Sigma-Aldrich) under shaking at 750 RPM. Compounds were dissolved in anhydrous dimethyl sulfoxide (DMSO, Sigma-Aldrich) to reach a concentration of 10 mM. K18 aggregates and serial dilutions of compounds were mixed together in PBS (volume 50 μL) to a final concentration of 2 μM of K18 aggregates and from 160 to 0.04 μM of compounds. The mixture was incubated for 30 minutes at room temperature (RT), then 40 μL of this mixture were transferred into a black 384-well plate assay (Perkin-Elmer) and mixed with 10 μL of 100 μM ThT in 250 mM glycine (both from Sigma-Aldrich) in PBS. Fluorescence (relative fluorescence units; RFU) was measured in monoplicate or duplicate on a Tecan reader (excitation: 440 nm; emission: 485 nm). Percentage of K18 disaggregation was then calculated and half maximal effective concentration (EC50) was determined using GraphPad Prism version 5 (GraphPad Software) assuming a one-binding site fitting model.

[2] = tested on: human neuroblastoma cell line overexpressing the full-length form of human Tau carrying the P301L mutation; assay: Reduction of intracellular Tau aggregation (AlphaLISA); type: cell-based; conditions: compound at 5 μM, 24 h; aggregated Tau normalized to total Tau, relative to DMSO-treated cells
Method: Reduction of Intracellular Tau Aggregation
A human neuroblastoma cell line overexpressing the full-length form of human Tau carrying the P301L mutation was cultured in complete medium [DMEM-F12 4.5 g/L Glutamax (Invitrogen), 15% FBS (Biochrom), 1% Peni/Strep (Invitrogen) supplemented with 2.5 μg/ml of G418 (Sigma-Aldrich) selection antibiotic]. The day before the experiment 5×10^5 cells/well were plated in a 6 well plate in 3 mL of complete medium. The next day, cells were incubated with DMSO or a compound of the present invention at a 5 μM for additional 24 h at 37° C. After incubation, cells were trypsinized, resupsended in 100 μl of homogenization buffer [25 mM Tris-HCl pH 7.4, 150 mM NaCl, 1 mM EDTA, 1 mM EGTA containing phosphatase inhibitors (30 mM NaF, 0.2 mM Na3VO4, 1 nM Okadaic acid, 1 mM PMSF, 5 mM Na4P2O7) and protease inhibitor cocktail (Complete™, Roche)], and then physically lysed with three rapid cycles of freezing and thawing. Samples were then directly tested in the AlphaLISA assay.
Phosphorylated, aggregated, and total Tau were quantified by AlphaLisa using the following antibody pairs: • HT7-Acceptor beads+biotin (BT)-Tau13-Donor beads: Total Tau • HT7-Acceptor beads+biotin (BT)-HT7-Donor beads: Aggregated human Tau
The Tau13 (Abcam) was biotinylated using EZ-Link® NHS-PEO Solid Phase biotinylation kit (Thermo Scientific), while the HT7-biotin was from a commercial source (Thermo Scientific).
For each antibody pairs the concentration of acceptor beads and biotinylated antibodies was optimized. All samples were first tested in a dilution series in PBS in order to identify the linear range and optimal dilution for each sample and assay. For the final protocol, the following reagents were added in a 384-well white OptiPlate (Perkin Elmer): • 5 μL of test diluted sample • 20 μL of the mixture biotin-mAb acceptor beads at the following final concentrations: • HT7-BT at 1.25 nM in combination with HT7-Acc beads at 10 μg/ml • Tau13-BT at 5 nM in combination with HT7-Acc beads at 2.5 μg/ml
After incubation of this mixture at room temperature for 1 h, 25 μL of Streptavidin Donor beads (Perkin Elmer) at 25 μg/mL were added in the dark. Plates were analyzed after 30 min incubation using the EnSpire Alpha instrument and EnSpire Workstation version 3.00.
Data for aggregated Tau were normalized to total Tau and then expressed as percentage of the DMSO-treated cells.

[3] = biological target: T2, flTau aggregates (longest isoform of human Tau, 2N4R; 441 amino acids) (Homo sapiens, UniProt P10636); assay: Full-length Tau (flTau) disaggregation assay by Thioflavin T (ThT); type: biochemical; conditions: 2 μM flTau aggregates, 160 to 0.04 μM compound, 30 minutes RT, ThT fluorescence
T2 construct: 35 μM of recombinant full-length (fl)Tau in PBS were aggregated for 24 hours; made in house; host or cells: bacteria
Method: Biological Assay Description Full-Length Tau (flTau) Disaggregation Assay by Thioflavin T (ThT)
The longest isoform of human Tau (2N4R; 441 amino acids) was expressed in bacteria and purified. For the Tau disaggregation assay by ThT, 35 μM of recombinant full-length (fl)Tau in PBS were aggregated for 24 hours at 37° C. in presence of 50 μM of heparin (Sigma-Aldrich) and 10 mM of DTT (Sigma-Aldrich) under shaking at 750 RPM. Compounds were dissolved in anhydrous dimethyl sulfoxide (DMSO, Sigma-Aldrich) to reach a concentration of 10 mM.
flTau aggregates and serial dilutions of compounds were mixed together in PBS (volume 50 μL) to a final concentration of 2 μM of flTau aggregates and from 160 to 0.04 μM of compounds. The mixture was incubated for 30 minutes at room temperature (RT), then 40 μL of this mixture were transferred into a black 384-well plate assay (Perkin-Elmer) and mixed with 10 μL of 100 μM ThT in 250 mM glycine (both from Sigma-Aldrich) in PBS. Fluorescence (relative fluorescence units; RFU) was measured in monoplicate or duplicate on a Tecan reader (excitation: 440 nm; emission: 485 nm). Percentage of flTau disaggregation was then calculated and the halfmaximal effective concentration (EC50) was determined using GraphPad Prism version 5 (GraphPad Software) assuming a one-binding site fitting model.

T1 sequence (P10636 561-689): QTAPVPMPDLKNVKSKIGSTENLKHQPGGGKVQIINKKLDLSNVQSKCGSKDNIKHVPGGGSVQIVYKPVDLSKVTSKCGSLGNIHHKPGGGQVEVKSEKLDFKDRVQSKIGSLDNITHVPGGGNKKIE
T2 sequence (P10636 1-441 isoform P10636-8): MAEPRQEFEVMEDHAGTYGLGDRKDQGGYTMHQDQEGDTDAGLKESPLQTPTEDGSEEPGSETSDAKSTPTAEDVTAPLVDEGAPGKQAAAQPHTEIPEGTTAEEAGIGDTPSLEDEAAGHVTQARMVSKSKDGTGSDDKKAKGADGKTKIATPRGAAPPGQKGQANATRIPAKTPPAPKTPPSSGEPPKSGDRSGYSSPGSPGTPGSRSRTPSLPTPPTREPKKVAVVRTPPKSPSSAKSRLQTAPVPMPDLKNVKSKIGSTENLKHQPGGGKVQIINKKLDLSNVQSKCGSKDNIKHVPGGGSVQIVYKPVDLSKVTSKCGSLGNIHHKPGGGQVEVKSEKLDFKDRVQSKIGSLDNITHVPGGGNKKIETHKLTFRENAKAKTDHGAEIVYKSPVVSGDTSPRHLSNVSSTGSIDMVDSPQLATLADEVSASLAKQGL

| Compound | EC50 [1] [µM] | % Reduction of intracellular Tau aggregation [2] | EC50 [3] [µM] |
| --- | --- | --- | --- |
| CN(C)C1CCc2c(c3ccc(Nc4ccc5sc(N6CCC(F)CC6)nc5c4)nc3n2C)C1 (stereo not drawn) [Example 3] | < 10 | ++ (++ %50 < x < 25) | < 10 |
| CN(C)C1CCc2oc3nc(Nc4ccc5sc(N6CCOCC6)nc5c4)ccc3c2C1 (stereo not drawn) [Example 5] | < 10 |  |  |
| CC(C)N1CCc2c(c3ccc(Nc4ccc5sc(N6CCC(F)CC6)nc5c4)nc3n2C)C1 [Example 6] | < 10 |  | < 10 |
| CC(C)N1CCc2oc3nc(Nc4ccc5nc(N6CCOCC6)sc5c4)ccc3c2C1 [Example 7] | < 10 |  |  |
| CC(C)N1CCc2oc3nc(Nc4ccc5sc(N6CCOCC6)nc5c4)ccc3c2C1 [Example 8] | 25 to 50 |  |  |
| CN(C)C1CCc2c(c3ccc(Nc4ccc5sc(N6CCOCC6)nc5c4)nc3n2C)C1 (stereo not drawn) [Example 9] | < 10 |  |  |
| CN(C)C1CCc2c(c3ccc(Nc4ccc5nc(N6CCOCC6)sc5c4)nc3n2C)C1 (stereo not drawn) [Example 10] | < 10 |  | < 10 |
| CN(C)[C@H]1CCc2c(c3ccc(Nc4ccc5sc(N6CCOCC6)nc5c4)nc3n2C)C1 [Example 11] | < 10 |  | < 10 |
| CN(C)[C@H]1CCc2c(c3ccc(Nc4ccc5nc(N6CCOCC6)sc5c4)nc3n2C)C1 [Example 13] | < 10 |  | < 10 |
| CN(C)C1CCc2c(c3ccc(Nc4ccc5nc(N6CCC(F)CC6)sc5c4)nc3n2C)C1 (stereo not drawn) [Example 14] | 10 to 25 |  | 10 to 25 |
| CN(C)C1CCc2c(c3ccc(Nc4ccc5sc(N6CCC[C@H](F)C6)nc5c4)nc3n2C)C1 (stereo partly drawn) [Example 15] | < 10 |  | < 10 |
| CN(C)C1CCc2c(c3ccc(Nc4ccc5sc(N6CCC[C@@H](F)C6)nc5c4)nc3n2C)C1 (stereo partly drawn) [Example 16] | < 10 |  | < 10 |
| CN(C)[C@@H]1CCc2c(c3ccc(Nc4ccc5nc(N6CCOCC6)oc5c4)nc3n2C)C1 [Example 17] |  |  | 25 to 50 |
| CN(C)[C@@H]1CCc2c(c3ccc(Nc4ccc5oc(N6CCOCC6)nc5c4)nc3n2C)C1 [Example 18] | 10 to 25 |  | 25 to 50 |
| CN(C)[C@@H]1CCc2c(c3ccc(Nc4ccc5nc(N6CCC[C@@H](F)C6)oc5c4)nc3n2C)C1 [Example 19] | 10 to 25 |  | 10 to 25 |
| CN(C)C1CCc2oc3nc(Nc4ccc5nc(N6CCOCC6)sc5c4)ccc3c2C1 (stereo not drawn) [Example 20] | 25 to 50 |  |  |
| CN(C)[C@H]1CCc2oc3nc(Nc4ccc5nc(N6CCOCC6)sc5c4)ccc3c2C1 [Example 21] | 10 to 25 |  |  |
| CN(C)[C@@H]1CCc2oc3nc(Nc4ccc5nc(N6CCOCC6)sc5c4)ccc3c2C1 [Example 22] | 25 to 50 |  |  |
| CN(C)C1CCc2oc3nc(Nc4ccc5nc(N6CCOCC6)oc5c4)ccc3c2C1 (stereo not drawn) [Example 28] | 10 to 25 |  |  |
| CN(C)C1CCc2[nH]c3nc(Nc4ccc5nc(N6CCOCC6)sc5c4)ccc3c2C1 (stereo not drawn) [Example 29] |  |  | < 10 |
| CN(C)C1CCc2[nH]c3nc(Nc4ccc5oc(N6CCOCC6)nc5c4)ccc3c2C1 (stereo not drawn) [Example 30] |  |  | < 10 |
| CN(C)C1CCc2oc3nc(Nc4ccc5oc(N6CCOCC6)nc5c4)ccc3c2C1 (stereo not drawn) [Example 31] | 10 to 25 |  | < 10 |
| CN(C)C1CCc2[nH]c3nc(Nc4ccc5nc(N6CCOCC6)oc5c4)ccc3c2C1 (stereo not drawn) [Example 32] |  |  | 10 to 25 |
| CN(C)[C@@H]1CCc2oc3nc(Nc4ccc5sc(N6CCOCC6)nc5c4)ccc3c2C1 [Example 33] | < 10 |  |  |
| CN(C)[C@H]1CCc2oc3nc(Nc4ccc5sc(N6CCOCC6)nc5c4)ccc3c2C1 [Example 34] | < 10 |  |  |
| CN(C)[C@H]1CCc2oc3nc(Nc4ccc5oc(N6CCOCC6)nc5c4)ccc3c2C1 [Example 35] | < 10 |  |  |
| CN(C)[C@@H]1CCc2oc3nc(Nc4ccc5oc(N6CCOCC6)nc5c4)ccc3c2C1 [Example 36] | 10 to 25 |  |  |
